{"source": "patent USRE46698E1", "about": "“Use of cyclohexanol derivatives as antimicrobial active compounds” (MERCK PATENT GMBH, priority 2011, dated 2018)", "key": {"Malassezia furfur": {"test_system": "Malassezia furfur", "test": "Antimicrobial action, microbe count (Example 6)", "assay_type": "cell-based", "details": "conc. 1.0%, H2O, count t0 4.0 × 10^2", "protocol": "For sample preparation, the substances being investigated are each dissolved or homogeneously dispersed in an amount of 1.0% in a water/ethanol mixture (12% of ethanol) and subsequently diluted with bacteria suspension in the ratio 1 to 2. P. acnes (ATCC 6919) is pre-incubated under anaerobic conditions for 48 h at 35° C. on RMC agar (Merck 1.05410). A bacteria suspension having an optical density (OD) of about 1.5 is subsequently prepared in RMC broth (Merck 1.05411, double-concentrated). 150 μl of freshly prepared sample and 100 μl of paraffin are added to 150 μl of bacteria suspension per well. The optical density is determined over the course of time at 37° C. using a Bioscreen C™ analyser compared with the negative control (=vehicle without test substance). Compared with the negative control, reduced optical densities confirm growth-inhibiting substance actions.\nFor sample preparation, the substances being investigated are each dissolved or homogeneously dispersed in an amount of 1.0% in a water/ethanol mixture (12% of ethanol) (=sample). A bacteria suspension of S. epidermidis (ATCC 12228) having an optical density of 1.0 in CASO broth (Merck 1.05459) is diluted 1:10000 with CASO broth. 500 μl of sample are added to 500 μl of bacteria suspension, and the mixture is incubated at 35° C. for 24 h. After the incubation, the test batches are diluted to −6 in 10 unit steps, and 0.1 ml of each is plated-out on CASO agar (Merck 1.05458) and incubated at 35° C. for 24 h.\nIn order to determine the initial microbe count, 0.1 ml of the bacteria suspension used are plated-out on CASO agar (Merck 1.05458) and incubated at 35° C. for 24 h.\nThe colonies are subsequently counted, and the microbe count per ml is determined compared with the negative control (12% of ethanol in water).\nThe procedure corresponds to that described in Examples 4 and 5 using the microorganisms shown below. The concentrations indicated are the final use concentrations. In order to prepare the stock solution, double the final concentration were prepared in the solvent indicated. This was subsequently diluted 1:2 with the corresponding microbe suspension. In the case of Aspergillus brasiliensis, the microbe count determination was exceptionally carried out after 48 h."}, "[1]": {"test": "Densities and viscosities, Ubbelohde viscometer, to estimate spreadability (Example 10)", "assay_type": "physicochemical", "details": "25° C.", "protocol": "Measurement of the Dynamic Viscosities in Order to Estimate the Spreadability at 25° C. After measurement of the densities and kinematic viscosities using an Ubbelohde viscometer, the following dynamic viscosities arise: Since spreadabilities and viscosities of cosmetic emollients correlate well, good spreadabilities can be concluded from the viscosities determined."}}, "data": [{"smiles": "CCOC(=O)C1CCCCC1O", "note": "(centres unmarked) [Substance I-2]", "values": [{"measurement": "Microbe count t24 h", "setting": "Malassezia furfur", "result": 0}, {"measurement": "Δlog", "setting": "Malassezia furfur; t24 h", "result": "−2.60"}, {"measurement": "Density", "setting": "[1]", "result": 1.0564, "unit": "g/mL"}, {"measurement": "Dynamic viscosity (kinematic viscosity × density)", "setting": "[1]", "result": 16.4, "unit": "mPas"}, {"measurement": "Kinematic viscosity", "setting": "[1]; Ubbelohde viscometer", "result": 15.5, "unit": "mm^2/s"}]}]}
